In article PMC6009911, “Inhibition of human cytochromes P450 2A6 and 2A13 by flavonoids, acetylenic thiophenes and sesquiterpene lactones from Pluchea indica and Vernonia cinerea” (Journal of Enzyme Inhibition and Medicinal Chemistry, 2017):
Where two headings read alike, the source gives them in different places. Marks after values point to notes of the source that are not given here.

Assays:
[1] = target: T1, CYP2A6 (Homo sapiens, UniProt P11509); design: made in house; method as in PMID 25857233; details: cited from earlier work
T1 sequence (P11509 1-494): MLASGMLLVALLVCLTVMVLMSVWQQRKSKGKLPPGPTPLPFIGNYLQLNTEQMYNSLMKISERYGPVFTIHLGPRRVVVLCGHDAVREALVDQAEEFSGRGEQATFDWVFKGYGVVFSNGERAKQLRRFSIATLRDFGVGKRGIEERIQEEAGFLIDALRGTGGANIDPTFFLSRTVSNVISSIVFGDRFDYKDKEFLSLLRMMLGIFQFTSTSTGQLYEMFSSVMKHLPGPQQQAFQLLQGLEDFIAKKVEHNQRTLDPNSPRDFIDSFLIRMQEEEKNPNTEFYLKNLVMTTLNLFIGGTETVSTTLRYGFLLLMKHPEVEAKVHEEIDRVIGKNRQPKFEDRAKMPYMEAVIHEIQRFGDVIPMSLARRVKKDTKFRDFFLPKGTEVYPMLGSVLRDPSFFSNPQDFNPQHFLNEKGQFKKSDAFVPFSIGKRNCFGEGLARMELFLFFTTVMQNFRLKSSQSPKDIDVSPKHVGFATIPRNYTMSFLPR

[2] = target: T1, CYP2A6; details: ref Prasopthum et al., 2015, cited from earlier work
[3] = target: T2, CYP2A13 (Homo sapiens, UniProt Q16696); test: Effects of trapping agents and dialysis on inactivation of CYP2A13; format: biochemical; details: CYP2A13 inhibition reaction mixture, probe coumarin, compound 10 µM
T2 construct: made in house
T2 sequence (Q16696 1-494): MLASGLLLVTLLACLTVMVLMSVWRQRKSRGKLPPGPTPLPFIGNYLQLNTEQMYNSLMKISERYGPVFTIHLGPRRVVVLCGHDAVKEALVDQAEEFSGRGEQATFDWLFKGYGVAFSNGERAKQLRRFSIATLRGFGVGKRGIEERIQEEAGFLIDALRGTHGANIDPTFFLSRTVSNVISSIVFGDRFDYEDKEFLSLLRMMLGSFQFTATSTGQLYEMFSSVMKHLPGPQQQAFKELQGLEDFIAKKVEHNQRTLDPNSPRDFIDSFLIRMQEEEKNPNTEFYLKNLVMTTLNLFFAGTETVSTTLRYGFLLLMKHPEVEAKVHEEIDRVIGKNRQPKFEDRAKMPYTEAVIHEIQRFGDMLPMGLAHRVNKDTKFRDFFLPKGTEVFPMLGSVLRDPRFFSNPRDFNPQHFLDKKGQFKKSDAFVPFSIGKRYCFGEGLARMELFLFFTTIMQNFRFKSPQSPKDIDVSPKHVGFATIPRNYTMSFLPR
Method: (§1) MBI requires NADPH and time to generate reactive intermediate as inhibitor and ultimately inactivates the enzyme. MBI was evaluated by pre-incubation with each test inhibitor in the reaction at different time periods (0, 10, 20 and 30 min) in the presence of NADPH for time-dependent assay, as described. The apparent inactivation constants, KI and Kinact, were obtained from double reciprocal plots of kobs versus inhibitor concentrations by linear regression analysis on GraphPad Prism 5. Methoxsalen was used as a control mechanism-based inhibitor for time- and NADPH-dependent inhibition assays.
To explore whether inactivation of CYP2As by thiophenes 9–11 and of CYP2A13 by hirsutinolides 5-8 could be reversed, the removal of reversible inhibitory compounds by dialysis and addition of trapping agents (GSH, semicarbazide, catalase or potassium ferricyanide) in the inhibition reaction mixture were performed. […] Similarly, mechanism-based inactivation of both CYP2A6 and CYP2A13 by thiophenes 9–11 could not be reversed (Table 3).

[4] = target: T2, CYP2A13; test: Mechanism-based (time- and NADPH-dependent) inactivation of CYP2A13; format: biochemical; details: pre-incubation 0-30 min with NADPH
Method: as §1

[5] = target: T1, CYP2A6; design: made in house; details: ref Prasopthum et al., 2015, cited from earlier work
[6] = target: T2, CYP2A13; test: Inhibition of CYP2A13-mediated coumarin 7-hydroxylation, enzymatic reconstitution assay; format: biochemical
Method: Inhibitory effect of plant extracts, fractions, subfractions and constituents was determined by inhibition assay on CYP2A6- and CYP2A13-mediated coumarin 7-hydroxylation. The recombinant human CYP2A6, CYP2A13 and rat NADPH-dependent cytochrome P450 oxidoreductase (CYPOR) proteins were expressed, purified, according to the methods previously described. […] Rate of 7-hydroxycoumarin product formation was measured on spectrofluorometer (Shimadzu, Kyoto, Japan) at λex = 355 nm, λem = 460 nm. Inhibition effects were determined by incubation with extracts, fractions or purified compounds with coumarin substrate in the reaction mixture and calculated as per cent relative inhibition compared with vehicle control reaction[20] and IC50 values were calculated using GraphPad Prism 5 (GraphPad Software Inc., La Jolla, CA).
as §1

[7] = target: T2, CYP2A13; test: Inhibition of CYP2A13-mediated nicotine metabolism; format: biochemical; details: compound at IC50 value; nicotine 50 μM; 30 min; Supplemental Figure S2
Method: mixture with nicotine substrate (a final concentration of 50 μM) prior to initiation of each reaction with 50 μM NADPH at room temperature. Each reaction was terminated by addition of ice-cold acetronitrile at 30 min incubation and 50 pmol 7-hydroxycoumarin as internal standard was added. The reaction was centrifuged (12,000 rpm, 10 min, 4 °C) and 20 μl of each sample was analyzed on symmetry RP-C18 column (3.9×150 mm). Gradient condition was isocratic of 12% ACN: 2-propanol (7:3) in 10 mM potassium phosphate buffer (pH 7.4) at flow rate of 1 ml/min. The nicotine peak area in each reaction was compared with that of time zero. The enzyme activity was determined as percent substrate consumption over 30 min. The reactions were […]
(1 picture or pasted object on this page, not shown here)

C/C=C(\C)C(=O)OC1CC(C)C2(O)CCC(C)(/C=C3/OC(=O)C(COC(C)=O)=C31)O2 (stereo not drawn) [Hirsutinolide 6, 8α-tigloyloxyhirsutinolide-13-O-acetate]
inhibition of CYP2A6-mediated nicotine metabolism [1]: showed inhibition
KI (inactivation) ([2]; read-out: CYP2A6 KI (inactivation constant)): 15.4 ± 1.8 µM
CYP2A6 Kinact [2]: 0.03 ± 0.01^b
activity at 10 µM ([3]; read-out: Per cent remaining activity, 70 μM K3Fe(CN)6): 25.9 ± 1.87%
activity at 10 µM ([3]; read-out: Per cent remaining activity, 2 mM GSH): 33.6 ± 4.8%
activity at 10 µM ([3]; read-out: Per cent remaining activity, 5 mM semicarbazide): 25 ± 3.81%
activity at 10 µM ([3]; read-out: Per cent remaining activity, 2000 U catalase): 26.6 ± 3.86%
activity at 10 µM ([3]; read-out: Per cent remaining activity, Dialysis (+) NADPH): 22.8 ± 1.13%
activity at 10 µM ([3]; read-out: Per cent remaining activity, Dialysis (−) NADPH): 85.3 ± 4.98%
activity at 10 µM ([3]; read-out: Per cent remaining activity, Pre-incubation): 28.4 ± 2.92%
kinact [4]: 0.001 s⁻¹
KI (inactivation) ([4]; read-out: CYP2A13 KI (inactivation constant)): 3.6 ± 1.05 µM
IC50 ([5]; 10-min pre-incubation in the presence of NADPH, read-out: IC50 CYP2A6 Pre-incubation): 20.8 ± 1.1 µM
IC50 ([5]; coincubation, coumarin 2 µM, read-out: IC50 CYP2A6 Coincubation): 37.8 ± 3.5 µM
Ki ([5]; coumarin 0–40 µM): 30.6 ± 1.5 µM
CYP2A6 Mode of inhibition [5]: Mixed type^b
CYP2A13 Mode of inhibition [6]: Mixed type
IC50 ([6]; 10-min pre-incubation in the presence of NADPH, read-out: IC50 CYP2A13 Pre-incubation): 7.66 ± 0.98 µM
IC50 ([6]; coincubation, coumarin 2 µM, read-out: IC50 CYP2A13 Coincubation): 20.9 ± 1.46 µM
Ki ([6]; coumarin 0–40 µM): 7.97 ± 0.78 µM
inhibition of CYP2A13-mediated nicotine metabolism [7]: showed inhibition
